This is an account of results in PubChem BioAssay AID1259407 (Chemical Carcinogenesis Research Information System (CCRIS), 2018).

Active and inactive are the calls of the source. No rule for the calls is given here.

In this data set the test system is CCRIS mutagenicity, Ames/micronucleus/aberration tests. Put plainly: CCRIS mutagenicity studies.
The mark [1] stands for this setting: Test System: AMES SALMONELLA TYPHIMURIUM, Strain/Indicator: TA98, Metabolic Activation: NONE, Method: PREINCUBATION
The mark [2] stands for this setting: Test System: AMES SALMONELLA TYPHIMURIUM, Strain/Indicator: TA100, Metabolic Activation: NONE, Method: PREINCUBATION
Setting [3] is: Test System: AMES SALMONELLA TYPHIMURIUM, Strain/Indicator: TA98, Metabolic Activation: NONE, Method: STANDARD PLATE.
Setting [4] is: Test System: AMES SALMONELLA TYPHIMURIUM, Strain/Indicator: TA98, Metabolic Activation: RAT, LIVER, S-9, AROCLOR 1254, Method: STANDARD PLATE.
The mark [5] stands for this setting: Test System: AMES SALMONELLA TYPHIMURIUM, Strain/Indicator: TA100, Metabolic Activation: NONE, Method: STANDARD PLATE.
The mark [6] stands for this setting: Test System: AMES SALMONELLA TYPHIMURIUM, Strain/Indicator: TA1538, Metabolic Activation: NONE, Method: STANDARD PLATE.

On to `COS(=O)(=O)OC`, for which the mutagenic call reads like this: (End Point: IN VITRO CHROMOSOMAL ABERRATIONS, Test System: CHL CELLS, Metabolic Activation: NONE) “active; positive (structural changes)”; (End Point: IN VITRO CHROMOSOMAL ABERRATIONS, Test System: CHL CELLS, Metabolic Activation: RAT, LIVER, S-9, SODIUM PHENOBARBITAL AND 5,6-BENZOFLAVONE) “active; positive (structural changes)”; (End Point: In vitro micronucleus, Test System: Chinese Hamster Ovary (CHO-WBL) cells, Metabolic Activation: None) “active; positive (p<0.01)”; (Test System: AMES SALMONELLA TYPHIMURIUM, Strain/Indicator: TA98, Metabolic Activation: NONE) “active; positive”; under setting [1], “active; positive”; (Test System: AMES SALMONELLA TYPHIMURIUM, Strain/Indicator: TA98, Metabolic Activation: S-9) “active; positive”. Further, the mutagenic call is “active; positive” (Test System: AMES SALMONELLA TYPHIMURIUM, Strain/Indicator: TA100, Metabolic Activation: NONE); “active; positive” under setting [2]; “active; positive” (Test System: AMES SALMONELLA TYPHIMURIUM, Strain/Indicator: TA100, Metabolic Activation: S-9); “active; positive” (Test System: AMES SALMONELLA TYPHIMURIUM, Strain/Indicator: TA1535, Metabolic Activation: NONE, Method: PREINCUBATION); “active; positive” (Test System: AMES SALMONELLA TYPHIMURIUM, Strain/Indicator: TA1537, Metabolic Activation: NONE, Method: PREINCUBATION); “active; positive” (Test System: AMES SALMONELLA TYPHIMURIUM, Strain/Indicator: TA1538, Metabolic Activation: NONE, Method: PREINCUBATION). Further, the mutagenic call is, setting by setting: (Test System: CHINESE HAMSTER V-79, Strain/Indicator: V-79/6-THIOGUANINE, Metabolic Activation: NONE, Method: FLASK ASSAY) “inactive; negative”; (Test System: CHO/HGPRT, Strain/Indicator: CHO-K1-BH4, Metabolic Activation: NONE, Method: STANDARD PLATE) “active; positive”.

For the molecule `Cn1c(N)nc2cc(O)ccc21`, the mutagenic call reads like this: (Test System: AMES SALMONELLA TYPHIMURIUM, Strain/Indicator: TA98, Metabolic Activation: RAT, LIVER, S-9, AROCLOR 1254, Method: PREINCUBATION) “inactive; negative”; (Test System: AMES SALMONELLA TYPHIMURIUM, Strain/Indicator: TA100, Metabolic Activation: RAT, LIVER, S-9, AROCLOR 1254, Method: PREINCUBATION) “inactive; negative”.

In the case of `Cc1ccc2cc3c(ccc4ccccc43)c3c2c1C(O)C3` (stereo unspecified), the mutagenic call (Test System: CHINESE HAMSTER V-79, Strain/Indicator: V-79/8-AZAGUANINE, Metabolic Activation: RAT, LIVER, S-9, AROCLOR 1254, Method: STANDARD PLATE) is “active; positive”.

`O=S(=O)(O)CNc1ccc(N=Nc2cccnc2)cc1`: the mutagenic call is “inactive; negative” under setting [3]; “inactive; negative” under setting [4]; “inactive; negative” under setting [5]; “inactive; negative” (Test System: AMES SALMONELLA TYPHIMURIUM, Strain/Indicator: TA100, Metabolic Activation: RAT, LIVER, S-9, AROCLOR 1254, Method: STANDARD PLATE); “inactive; negative” (Test System: AMES SALMONELLA TYPHIMURIUM, Strain/Indicator: TA1535, Metabolic Activation: NONE, Method: STANDARD PLATE); “inactive; negative” (Test System: AMES SALMONELLA TYPHIMURIUM, Strain/Indicator: TA1535, Metabolic Activation: RAT, LIVER, S-9, AROCLOR 1254, Method: STANDARD PLATE). In addition, the mutagenic call runs as follows: (Test System: AMES SALMONELLA TYPHIMURIUM, Strain/Indicator: TA1537, Metabolic Activation: NONE, Method: STANDARD PLATE) “inactive; negative”; (Test System: AMES SALMONELLA TYPHIMURIUM, Strain/Indicator: TA1537, Metabolic Activation: RAT, LIVER, S-9, AROCLOR 1254, Method: STANDARD PLATE) “inactive; negative”; under setting [6], “inactive; negative”; (Test System: AMES SALMONELLA TYPHIMURIUM, Strain/Indicator: TA1538, Metabolic Activation: RAT, LIVER, S-9, AROCLOR 1254, Method: STANDARD PLATE) “inactive; negative”.

On to `COc1cccc2c1C(=O)c1c(O)c3c(c(O)c1C2=O)C[C@@](O)(C(=O)CO)C[C@@H]3O`, for which the mutagenic call by setting is: under setting [3], “active; positive”; under setting [4], “active; positive”; under setting [5], “active; positive”; under setting [6], “active; positive”.

Take `Cc1ccc(N(SC(F)(Cl)Cl)S(=O)(=O)N(C)C)cc1`: the mutagenic call was “active; positive (structural changes)” (End Point: In vivo chromosomal aberrations, Test System: Peripheral blood lymphocytes, Species: Sheep, Strain/Sex: Merino/female, Route: Intrarumen) and “active; positive” (End Point: In vivo micronucleus, Test System: Peripheral blood lymphocytes, Species: Sheep, Strain/Sex: Merino/female, Route: Intrarumen).

`Nc1c2c(nc3ccccc13)CCCC2`: the mutagenic call (Test System: AMES SALMONELLA TYPHIMURIUM, Strain/Indicator: TA97, Metabolic Activation: HAMSTER LIVER S-9, AROCLOR 1254 (30%), Method: PREINCUBATION) is “active; positive”; the mutagenic call (Test System: AMES SALMONELLA TYPHIMURIUM, Strain/Indicator: TA97, Metabolic Activation: NONE, Method: PREINCUBATION) was “active; positive”; the mutagenic call (Test System: AMES SALMONELLA TYPHIMURIUM, Strain/Indicator: TA97, Metabolic Activation: RAT LIVER S-9, AROCLOR 1254 (30%), Method: PREINCUBATION) is “active; positive”; the mutagenic call (Test System: AMES SALMONELLA TYPHIMURIUM, Strain/Indicator: TA98, Metabolic Activation: HAMSTER LIVER S-9, AROCLOR 1254 (5 OR 10%), Method: PREINCUBATION) was “inactive; negative”; the mutagenic call (Test System: AMES SALMONELLA TYPHIMURIUM, Strain/Indicator: TA98, Metabolic Activation: HAMSTER LIVER S-9, AROCLOR 1254 (30%), Method: PREINCUBATION) was “active; positive”; the mutagenic call under setting [1] was “inactive; negative”. Further, the mutagenic call is, setting by setting: (Test System: AMES SALMONELLA TYPHIMURIUM, Strain/Indicator: TA98, Metabolic Activation: RAT LIVER S-9, AROCLOR 1254 (5%), Method: PREINCUBATION) “active; positive”; (Test System: AMES SALMONELLA TYPHIMURIUM, Strain/Indicator: TA98, Metabolic Activation: RAT LIVER S-9, AROCLOR 1254 (10%), Method: PREINCUBATION) “active; positive”; (Test System: AMES SALMONELLA TYPHIMURIUM, Strain/Indicator: TA98, Metabolic Activation: RAT LIVER S-9, AROCLOR 1254 (30%), Method: PREINCUBATION) “inactive; negative”; under setting [2], “inactive; negative”; (Test System: AMES SALMONELLA TYPHIMURIUM, Strain/Indicator: TA100, Metabolic Activation: RAT LIVER S-9, AROCLOR 1254 (30%), Method: PREINCUBATION) “inactive; negative”; (Test System: UDS MOUSE HEPATOCYTES, Strain/Indicator: THY INCORP, Metabolic Activation: NONE, Method: AUTORADIOGRAPHY) “active; positive”. Moreover, the mutagenic call (Test System: UDS RAT HEPATOCYTES, Strain/Indicator: THY INCORP, Metabolic Activation: NONE, Method: AUTORADIOGRAPHY) was “active; positive”.

Consider `CC(C)=CCC/C(C)=C/CO`, for which the mutagenic call under setting [3] is “inactive; negative”; the mutagenic call (Test System: AMES SALMONELLA TYPHIMURIUM, Strain/Indicator: TA98, Metabolic Activation: S-9, Method: STANDARD PLATE) was “inactive; negative”; the mutagenic call under setting [5] is “inactive; negative”; the mutagenic call (Test System: AMES SALMONELLA TYPHIMURIUM, Strain/Indicator: TA100, Metabolic Activation: S-9, Method: STANDARD PLATE) was “inactive; negative”.

As to `OC1c2c(ccc3c2ccc2ccccc23)C2OC2C1O` (stereo unspecified), the mutagenic call by setting is: under setting [1], “active; positive”; (Test System: CHINESE HAMSTER V-79, Strain/Indicator: V-79/6-THIOGUANINE, Metabolic Activation: NONE) “active; positive”.

`C[C@H](CCC(=O)O)[C@H]1CC[C@H]2[C@@H]3CC[C@@H]4CC(=O)CC[C@]4(C)[C@H]3C[C@@H](O)[C@]12C`: the mutagenic call reads like this: (Test System: AMES SALMONELLA TYPHIMURIUM, Strain/Indicator: TA98, Metabolic Activation: NONE, Method: FLUCTUATION TEST) “inactive; negative”; under setting [1], “inactive; negative”; (Test System: AMES SALMONELLA TYPHIMURIUM, Strain/Indicator: TA98, Metabolic Activation: RAT, LIVER, S-9, PCB, Method: PREINCUBATION) “inactive; negative”; (Test System: AMES SALMONELLA TYPHIMURIUM, Strain/Indicator: TA100, Metabolic Activation: NONE, Method: FLUCTUATION TEST) “inactive; negative”.
